Experimental data as given in PubChem BioAssay AID652241 (Broad Institute, 2013).
Records with an inconclusive call do not appear. Active and inactive are the calls of the source.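 The calls were made as follows: active = fitted curve reaches activity 50 in the expected rising direction at or below the top valid tested dose; inconclusive = no clear call, values can overlap the other calls; inactive = activity in the wrong direction, and the rest.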

Target: Virion infectivity factor (Human immunodeficiency virus type 1 group M subtype B (isolate BH10)) + Virion infectivity factor (Human immunodeficiency virus type 1 group M subtype B (isolate BRU/LAI)) + Virion infectivity factor (Human immunodeficiency virus type 1 group M subtype B (isolate PCV12)) + Virion infectivity factor (Human immunodeficiency virus type 1 group M subtype B (isolate HXB2)) (UniProt P69720+P69721+P69722+P69723)
Test: dose-dependent disruption of HIV Vif self-association – imaging, HEK293T, cherry-picks, dose response (AID 652241);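 also: imaged cell signal that rises when Vif self-association is disrupted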
Conditions: HEK293T Vif multimerization imaging, 24 h; for activity, higher = inhibition: at 19.5 µM (top of the series)

Chain of Virion infectivity factor (Human immunodeficiency virus type 1 group M subtype B (isolate BH10)) + Virion infectivity factor (Human immunodeficiency virus type 1 group M subtype B (isolate BRU/LAI)) + Virion infectivity factor (Human immunodeficiency virus type 1 group M subtype B (isolate PCV12)) + Virion infectivity factor (Human immunodeficiency virus type 1 group M subtype B (isolate HXB2)) (P69720 whole entry, looked up): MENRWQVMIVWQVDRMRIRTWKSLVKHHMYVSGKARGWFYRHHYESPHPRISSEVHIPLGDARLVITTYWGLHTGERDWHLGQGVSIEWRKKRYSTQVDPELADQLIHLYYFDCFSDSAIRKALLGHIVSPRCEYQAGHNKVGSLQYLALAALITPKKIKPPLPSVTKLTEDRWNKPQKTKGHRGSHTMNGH
Chain of Virion infectivity factor (Human immunodeficiency virus type 1 group M subtype B (isolate BH10)) + Virion infectivity factor (Human immunodeficiency virus type 1 group M subtype B (isolate BRU/LAI)) + Virion infectivity factor (Human immunodeficiency virus type 1 group M subtype B (isolate PCV12)) + Virion infectivity factor (Human immunodeficiency virus type 1 group M subtype B (isolate HXB2)) (P69721 whole entry, looked up): as the sequence (P69720 whole entry, looked up) above
Chain of Virion infectivity factor (Human immunodeficiency virus type 1 group M subtype B (isolate BH10)) + Virion infectivity factor (Human immunodeficiency virus type 1 group M subtype B (isolate BRU/LAI)) + Virion infectivity factor (Human immunodeficiency virus type 1 group M subtype B (isolate PCV12)) + Virion infectivity factor (Human immunodeficiency virus type 1 group M subtype B (isolate HXB2)) (P69722 whole entry, looked up): as the sequence (P69720 whole entry, looked up) above
Chain of Virion infectivity factor (Human immunodeficiency virus type 1 group M subtype B (isolate BH10)) + Virion infectivity factor (Human immunodeficiency virus type 1 group M subtype B (isolate BRU/LAI)) + Virion infectivity factor (Human immunodeficiency virus type 1 group M subtype B (isolate PCV12)) + Virion infectivity factor (Human immunodeficiency virus type 1 group M subtype B (isolate HXB2)) (P69723 whole entry, looked up): as the sequence (P69720 whole entry, looked up) above

Cc1ncoc1C(=O)N1CCCC(C(=O)c2ccc(Oc3ccccc3)cc2)C1 (centres undefined)
activity, higher = inhibition: inactive

CC(C)c1ccc(NC(=O)N2CCCC2C(=O)Nc2ccc(-n3cnnn3)cc2)cc1 (centres undefined)
activity, higher = inhibition: inactive

Cc1ccc(-n2nnc3c(=O)n(CC(=O)OCc4ccccc4)cnc32)cc1
activity, higher = inhibition: inactive

COc1ccc(-c2nc(-c3ccccn3)nc(N3CCN(C)CC3)c2C#N)cc1
activity, higher = inhibition: inactive

COc1cc(C2C3=C(COC3=O)Oc3cc4c(cc32)OCO4)cc(OC)c1O (centres undefined)
AC50: 0.849 µM

Cc1ccc2c(COC(=O)c3ccccc3OC(F)F)cc(=O)oc2c1
AC50: 12 µM

CCN(CC(=O)Nc1c(F)cccc1F)C(=O)c1cccc(-n2cccc2)c1
activity, higher = inhibition: inactive

Cc1ccc(-n2c(SCC(=O)Nc3ccc4c(c3)OCO4)nnc2-c2cccs2)cc1
activity, higher = inhibition: inactive

COc1cc(NC(=O)c2ccc(-c3csc(C)n3)cc2)c(OC)cc1Cl
AC50: 10.3 µM

CCOc1ccc(Nc2nc3c(C)cccc3cc2C#N)cc1
AC50: 11.9 µM

CCOC(=O)C1CCN(S(=O)(=O)c2cccc(-c3cn4cc(C)ccc4n3)c2)CC1
activity, higher = inhibition: inactive

COc1ccccc1NC(=O)c1ccccc1NC(=O)c1ccccn1
activity, higher = inhibition: inactive

COc1cc(/C=C/C(=O)OCC(=O)N2CCCc3ccccc32)ccc1O
activity, higher = inhibition: inactive

CCOC(=O)C1CCCN(C(=O)c2cc(S(=O)(=O)N(C)C)ccc2N2CCCC2)C1 (centres undefined)
activity, higher = inhibition: inactive

COc1cc(CNCc2ccccc2)c(Br)cc1OC1CCCC1
activity, higher = inhibition: inactive

Cc1cc(Cl)n2c(nc3cc(F)c(F)cc32)c1C#N
AC50: 5.68 µM

CCc1ccc(N2C(=O)/C(=C/c3cccs3)N(CC(=O)OC)C2=S)cc1
AC50: 18.8 µM

CC(=O)Nc1ccc(S(=O)(=O)N2c3ccccc3C(C)=CC2(C)C)cc1
AC50: > 19.5 µM (inactive)

Cc1ccc2c(c1)N(CC(=O)NCC1CCCO1)C(=O)C(C(C)C)O2 (centres undefined)
activity, higher = inhibition: inactive

Cc1ccc(N(C)S(=O)(=O)c2ccc(-c3ccc(=O)[nH]n3)s2)cc1C
activity, higher = inhibition: inactive

COc1cccc(N2CCN(C(=O)c3ccc(CS(=O)c4ccc(C)cc4)o3)CC2)c1 (centres undefined)
AC50: 12.9 µM

CCOC(=O)N1CCN(c2c(NCc3ccc(Cl)cc3)c(=O)c2=O)CC1
AC50: > 19.5 µM (inactive)

Cc1ccnc(NC(=O)CCCOc2cc(=O)n(C)c3ccccc23)c1
AC50: 1.79 µM

CCOC(=O)c1c(NC(=O)CCC(=O)N2CCOCC2)sc2c1CC(C)(C)OC2
activity, higher = inhibition: inactive

C=CCNc1sc(C(=O)c2ccc(Br)s2)c(N)c1C#N
activity, higher = inhibition: inactive

COc1cc(OC)cc(C(=O)NC(C(=O)Nc2ccc3c(c2)OCO3)C(C)C)c1 (centres undefined)
activity, higher = inhibition: inactive

COc1ccc(-c2coc3cc(O)ccc3c2=O)cc1
activity, higher = inhibition: inactive

CCOC(=O)C1(Cc2cccc(OC)c2)CCN(CCO)CC1
activity, higher = inhibition: inactive

CCC(=O)Nc1ccc(-c2nnc(SCc3ccc(C(=O)Nc4nccs4)cc3)n2CC)cc1
activity, higher = inhibition: inactive

CCOC(=O)C1CCCN(CC(=O)Nc2c(C(=O)OC)[nH]c3ccc(Cl)cc23)C1 (centres undefined)
activity, higher = inhibition: inactive

COC(=O)c1ccc(NCc2cc(O)ccc2O)cc1
AC50: 5.96 µM

COc1cccc(NC(=O)NC2(C(F)(F)F)Oc3ccccc3O2)c1
AC50: > 19.5 µM (inactive)

Cc1cc(NC(=O)CSc2nc3c(sc4ccccc43)c(=O)n2CCCN2CCOCC2)n[nH]1
AC50: 7.05 µM

COc1ccc(NC(=O)Cn2ncc(Cl)c(Cl)c2=O)cc1S(=O)(=O)N1CCOCC1
AC50: > 19.5 µM (inactive)

COc1ccc2cc(-c3cc(C(=O)OCC(=O)NC4CCS(=O)(=O)C4)c4ccccc4n3)ccc2c1 (centres undefined)
AC50: 14.7 µM

CCCSc1ccc2nc(NC(=O)OC)[nH]c2c1
AC50: 15.4 µM

Cc1nc(SCC(=O)N2CCCC2=O)nc(C)c1C
activity, higher = inhibition: inactive

O=C(Cn1c(=O)oc2cc(S(=O)(=O)N3CCCCC3)ccc21)N1CCc2ccccc21
activity, higher = inhibition: inactive

COc1ccc(C(=O)NCc2oc(-c3ccccc3)cc2C(=O)O)cc1
activity, higher = inhibition: inactive
